One may read the Emax as the maximal effect, on the per cent scale that the assay sets. Broadly, the pEC50 is the EC50 on a negative log10 scale, so that one unit is a factor of ten. The pKi is the Ki on a negative log10 scale, so that one unit is a factor of ten.

One assay concerns the target T1, human 5-HT2C receptor (Homo sapiens, UniProt P28335).
T1 sequence (P28335 33-458): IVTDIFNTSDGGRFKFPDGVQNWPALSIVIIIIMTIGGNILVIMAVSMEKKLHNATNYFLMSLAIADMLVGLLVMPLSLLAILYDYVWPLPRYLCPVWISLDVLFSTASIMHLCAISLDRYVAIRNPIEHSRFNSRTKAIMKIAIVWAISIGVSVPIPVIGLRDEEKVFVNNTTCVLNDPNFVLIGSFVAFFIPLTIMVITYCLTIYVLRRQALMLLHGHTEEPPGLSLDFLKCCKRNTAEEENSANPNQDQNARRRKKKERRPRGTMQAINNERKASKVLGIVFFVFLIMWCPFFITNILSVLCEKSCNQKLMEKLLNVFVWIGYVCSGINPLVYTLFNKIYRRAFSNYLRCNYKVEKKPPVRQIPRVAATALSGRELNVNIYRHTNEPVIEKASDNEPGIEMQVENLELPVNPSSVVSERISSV
Briefly: 5-HT2C receptor-stimulated calcium mobilization (FLIPR) in CHO cells. Type of assay: cell-based. To be noted: for Emax: CHO, read-out: 5-HT2C Function EMax (%); for pEC50: read-out: 5-HT2C Function EC50. (In general: A change in cytosolic calcium serves as a functional read-out for many receptors and channels.)

For assay [1], the target named is T2, human 5-hydroxytryptamine-2C (h5-HT2C) receptor (Homo sapiens, UniProt P28335).
T2 construct: expressed in transfected cells; host or cells: CHO (Chinese Hamster Ovary) cells; membranes
T2 sequence (P28335 33-458): T1 sequence (P28335 33-458)
Briefly: 5-HT2C binding: [125I]DOI displacement in membranes of transfected CHO cells. Conditions: read-out: 5-HT2C Binding Ki avg.

pEC50, pKi: −log10 of the molar value. Some results are limits rather than exact numbers.

With `NC[C@H]1COc2cc(F)cc(-c3c(Cl)cccc3Cl)c2O1` [Compound I-47, {[(2S)-8-(2,6-Dichlorophenyl)-6-fluoro-2,3-dihydro-1,4-benzodioxin-2-yl]methyl}amine], on human 5-HT2C receptor, the Emax was found to be 60% and the negative logarithm of the EC50 (pEC50) is greater than 7.00. In assay [1], the negative logarithm of the Ki (pKi) is greater than 7.30.
The corresponding values for `NC[C@@H]1Oc2cc(F)cc(-c3c(Cl)cccc3Cl)c2O1` [Compound I-86, 1-[(2R)-4-(2,6-dichlorophenyl)-6-fluoro-1,3-benzodioxol-2-yl]methanamine] are 80%, less than 6.30 and greater than 7.30.
Regarding `NCC1COc2cccc(-c3cccc(F)c3F)c2O1` (centres unmarked) [Compound I-13, {[8-(2,3-Difluorophenyl)-2,3-dihydro-1,4-benzodioxin-2-yl]methyl}amine], on human 5-HT2C receptor, the maximal response (Emax) turned out to be 70% and the negative logarithm of the EC50 (pEC50) was greater than 7.00. Besides, the negative logarithm of the Ki (pKi) in assay [1] is greater than 7.30.
Taken in the same sequence, the figures for `CNCC1COc2cccc(-c3ccccc3C(F)(F)F)c2O1` (centres unmarked) [Compound I-20, N-Methyl-1-{8-[2-(trifluoromethyl)phenyl]-2,3-dihydro-1,4-benzodioxin-2-yl}methanamine] were 40%, less than 6.30 and 6.70 to 7.30.
The corresponding values for `Cc1ccccc1-c1cc(Cl)cc2c1O[C@@H](CN)CO2` [Compound I-60, (2S)-[6-Chloro-8-(2-methyl-phenyl)-2,3-dihydro-benzo[1,4]dioxin-2-yl]-methylamine] are 50%, 6.30 to 7.00 and greater than 7.30.
The corresponding values for `NCC1COc2cccc(-c3ccc(Cl)cc3Cl)c2O1` (centres unmarked) [Compound I-7, {[8-(2,4-Dichlorophenyl)-2,3-dihydro-1,4-benzodioxin-2-yl]methyl}amine] are 70%, greater than 7.00 and greater than 7.30.
As to `Cc1ccccc1-c1cc(Cl)cc2c1OC(CN)O2` (centres unmarked) [Compound I-91, [6-Chloro-4-(2-methyl-phenyl)-benzo[1,3]dioxol-2-yl]-methylamine], on human 5-HT2C receptor, the Emax was determined as 80% and the pEC50 is greater than 7.00. Further, the pKi in assay [1] is greater than 7.30.
For the compound `CC(C)NCC1COc2cccc(-c3ccc(Cl)cc3Cl)c2O1` (centres unmarked) [Compound I-37, N-{[8-(2,4-Dichlorophenyl)-2,3-dihydro-1,4-benzodioxin-2-yl]methyl}propan-2-amine], on human 5-HT2C receptor, the Emax turned out to be 20% and the negative logarithm of the EC50 (pEC50) is less than 6.30. In addition, the negative-log Ki (pKi) in assay [1] was less than 6.70.
Taken in the same sequence, the figures for `NC[C@H]1COc2cc(Cl)cc(-c3ccccc3C(F)(F)F)c2O1` [Compound I-62, (2S)-[6-Chloro-8-(2-trifluoromethyl-phenyl)-2,3-dihydro-benzo[1,4]dioxin-2-yl]-methylamine] were 60%, 6.30 to 7.00 and greater than 7.30.
In the case of `CNCC1COc2cccc(-c3ccccc3F)c2O1` (centres unmarked) [Compound I-18, {[8-(2-Fluorophenyl)-2,3-dihydro-1,4-benzodioxin-2-yl]methyl}methylamine], on human 5-HT2C receptor, the Emax is 50% and the negative-log EC50 (pEC50) was greater than 7.00. Further, in assay [1], the negative logarithm of the Ki (pKi) was greater than 7.30.
Taken in the same sequence, the figures for `NC[C@H]1COc2cc(Cl)cc(-c3ccccc3Cl)c2O1` [Compound I-58, (2S)-[6-Chloro-8-(2-chloro-phenyl)-2,3-dihydro-benzo[1,4]dioxin-2-yl]-methylamine] were 50%, greater than 7.00 and greater than 7.30.
`CNCC1Oc2cc(F)cc(-c3ccccc3Cl)c2O1` (centres unmarked) [Compound I-87, 1-[4-(2-Chlorophenyl)-6-fluoro-1,3-benzodioxol-2-yl]-N-methylmethanamine]: on human 5-HT2C receptor, the Emax was 80% and the pEC50 is greater than 7.00. The negative logarithm of the Ki (pKi) in assay [1] is greater than 7.30.
`Cc1cccc(C)c1-c1cccc2c1OC(CN)CO2` (centres unmarked) [Compound I-12, {[8-(2,6-Dimethylphenyl)-2,3-dihydro-1,4-benzodioxin-2-yl]methyl}amine]: on human 5-HT2C receptor, the Emax came out at 70% and the pEC50 was greater than 7.00. The pKi in assay [1] was greater than 7.30.
The corresponding values for `NC[C@H]1COc2cc(Cl)cc(-c3cc(Cl)ccc3Cl)c2O1` [Compound I-67, (2S)-[6-Chloro-8-(2,5-dichloro-phenyl)-2,3-dihydro-benzo[1,4]dioxin-2-yl]-methyl amine] are 50%, 6.30 to 7.00 and greater than 7.30.
Taken in the same sequence, the figures for `NCC1Oc2cc(F)cc(-c3cc(Cl)ccc3Cl)c2O1` (centres unmarked) [Compound I-81, 1-[4-(2,5-Dichloro-phenyl)-6-fluoro-1,3-benzodioxol-2-yl]methanamine] were 80%, greater than 7.00 and greater than 7.30.
Taken in the same sequence, the figures for `CNCC1COc2cccc(-c3ccccc3OC)c2O1` (centres unmarked) [Compound I-19, {[8-(2-Methoxyphenyl)-2,3-dihydro-1,4-benzodioxin-2-yl]methyl}methylamine] were 20%, 6.30 to 7.00 and less than 6.70.
Consider `Cc1cccc(C)c1-c1cc(Cl)cc2c1O[C@@H](CN)CO2` [Compound I-69, (2S)-[6-Chloro-8-(2,6-dimethyl-phenyl)-2,3-dihydro-benzo[1,4]dioxin-2-yl]-methyl amine], for which, at human 5-HT2C receptor, the maximal response (Emax) worked out at 60% and the pEC50 was 6.30 to 7.00. For the same compound, the negative-log Ki (pKi) in assay [1] was greater than 7.30.
Regarding `NC[C@H]1COc2cccc(-c3ccccc3C(F)(F)F)c2O1` [Compound I-57, 1-{(2S)-8-[2-(trifluoromethyl)phenyl]-2,3-dihydro-1,4-benzodioxin-2-yl}methanamine], the maximal effect (Emax) at human 5-HT2C receptor turned out to be 50%. For the same compound, the negative-log Ki (pKi) in assay [1] is greater than 7.30.
`NCC1Oc2cc(Cl)cc(-c3ccc(Cl)cc3Cl)c2O1` (centres unmarked) [Compound I-96, [6-Chloro-4-(2,4-dichloro-phenyl)-benzo[1,3]dioxol-2-yl]-methylamine]: at human 5-HT2C receptor, the Emax is 80% and the negative logarithm of the EC50 (pEC50) is greater than 7.00. Further, the pKi in assay [1] was greater than 7.30.
Taken in the same sequence, the figures for `NCC1Oc2cc(Cl)cc(-c3ccccc3Cl)c2O1` (centres unmarked) [Compound I-90, [6-Chloro-4-(2-chloro-phenyl)-benzo[1,3]dioxol-2-yl]-methylamine] were 80%, greater than 7.00 and greater than 7.30.
Regarding `Clc1ccccc1-c1cccc2c1OC(CNCC1CC1)CO2` (centres unmarked) [Compound I-41, {[8-(2-Chlorophenyl)-2,3-dihydro-1,4-benzodioxin-2-yl]methyl}(cyclopropylmethyl)-amine], at human 5-HT2C receptor, the Emax was 20% and the negative logarithm of the EC50 (pEC50) was less than 6.30. For the same compound, the negative logarithm of the Ki (pKi) in assay [1] is 6.70 to 7.30.
Taken in the same sequence, the figures for `Clc1ccccc1-c1cccc2c1OC(CNC1CC1)CO2` (centres unmarked) [Compound I-43, N-{[8-(2-Chlorophenyl)-2,3-dihydro-1,4-benzodioxin-2yl]methyl}cyclopropanamine] were 30%, less than 6.30 and less than 6.70.
Consider `NCC1COc2cccc(-c3ccc(F)cc3F)c2O1` (centres unmarked) [Compound I-14, {[8-(2,4-Difluorophenyl)-2,3-dihydro-1,4-benzodioxin-2-yl]methyl}amine], for which, at human 5-HT2C receptor, the maximal response (Emax) was 70% and the pEC50 was greater than 7.00. The pKi in assay [1] was greater than 7.30.
`C[C@]1(CN)COc2cccc(-c3ccccc3Cl)c2O1` [Compound I-49, {[(2S)-8-(2-Chlorophenyl)-2-methyl-2,3-dihydro-1,4-benzodioxin-2-yl]methyl}amine]: on human 5-HT2C receptor, the maximal effect (Emax) turned out to be 70% and the negative-log EC50 (pEC50) is less than 6.30. Besides, the negative-log Ki (pKi) in assay [1] is greater than 7.30.
As for `NC[C@H]1Oc2cc(F)cc(-c3c(Cl)cccc3Cl)c2O1` [Compound I-85, 1-[(2S)-4-(2,6-dichlorophenyl)-6-fluoro-1,3-benzodioxol-2-yl]methanamine], on human 5-HT2C receptor, the maximum response (Emax) stood at 90% and the negative-log EC50 (pEC50) is greater than 7.00. Further, in assay [1], the pKi is greater than 7.30.
As for `CN(C)CC1COc2cccc(-c3ccc(Cl)cc3Cl)c2O1` (centres unmarked) [Compound I-39, {[8-(2,4-Dichlorophenyl)-2,3-dihydro-1,4-benzodioxin-2-yl]methyl}dimethylamine], on human 5-HT2C receptor, the Emax came to 20% and the negative logarithm of the EC50 (pEC50) is 6.30 to 7.00. Moreover, the pKi in assay [1] is greater than 7.30.
Taken in the same sequence, the figures for `CNCC1COc2cccc(-c3ccccc3Cl)c2O1` (centres unmarked) [Compound I-21, {[8-(2-Chlorophenyl)-2,3-dihydro-1,4-benzodioxin-2-yl]methyl}methylamine] were 40%, greater than 7.00 and greater than 7.30.
With `NC[C@H]1COc2ccc(F)c(-c3ccccc3Cl)c2O1` [Compound I-71, (2S)-[8-(2-Chloro-phenyl)-7-fluoro-2,3-dihydro-benzo[1,4]dioxin-2-yl]-methylamine], on human 5-HT2C receptor, the Emax came to 40% and the pEC50 is greater than 7.00. Further, the pKi in assay [1] is greater than 7.30.
For the compound `Cc1ccccc1-c1cc(F)cc2c1OC(CN)O2` (centres unmarked) [Compound I-80, 1-[4-(2-Methyl-phenyl)-6-fluoro-1,3-benzodioxol-2-yl]methanamine], at human 5-HT2C receptor, the Emax came to 90% and the pEC50 is greater than 7.00. The pKi in assay [1] was greater than 7.30.
Taken in the same sequence, the figures for `CCNCC1COc2cccc(-c3ccc(Cl)cc3Cl)c2O1` (centres unmarked) [Compound I-33, N-{[8-(2,4-Dichlorophenyl)-2,3-dihydro-1,4-benzodioxin-2-yl]methyl}ethanamine] were 30%, less than 6.30 and 6.70 to 7.30.

Values taken from US20060241172A1, “Benzodioxane and benzodioxolane derivatives and uses thereof” (Wyeth, priority 2005, published 2006).
